Measurements as given in PubChem BioAssay AID248 (DTP/NCI, 2004).
Where “and” joins values, the source holds several entries; their conditions need not be identical. Identical values can stand only once. Toxic doses and inconclusive results are not listed. Rule as the data show it: active = T/C of 150% or more; inactive = T/C below 125%.

Test system: L1210 leukemia ip in BDF1 mice, survival T/C
Experiment: NCI In Vivo Anticancer Drug Screen. Data for tumor model L1210 Leukemia (intraperitoneal) in B6D2F1 (BDF1) mice
Details: endpoint: mean survival time, higher = longer survival
Procedure, shortened: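 Read-out is survival time, reported as the treated-group measurement over the vehicle-control measurement.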

[1] = dose: 100.0 mg/kg/injection, schedule: Q04DX003 (ip), vehicle: saline
[2] = dose: 200.0 mg/kg/injection, schedule: Q04DX003 (ip), vehicle: saline
[3] = dose: 100.0 mg/kg/injection, schedule: Q01DX001 (ip), vehicle: Klucel (hydroxypropylcellulose) (HPC)
[4] = dose: 200.0 mg/kg/injection, schedule: Q01DX001 (ip), vehicle: Klucel (hydroxypropylcellulose) (HPC)
[5] = dose: 400.0 mg/kg/injection, schedule: Q01DX001 (ip), vehicle: Klucel (hydroxypropylcellulose) (HPC)
[6] = dose: 100.0 mg/kg/injection, schedule: Q01DX001 (ip), vehicle: carboxymethylcellulose (CMC)
[7] = dose: 200.0 mg/kg/injection, schedule: Q01DX001 (ip), vehicle: carboxymethylcellulose (CMC)
[8] = dose: 400.0 mg/kg/injection, schedule: Q01DX001 (ip), vehicle: carboxymethylcellulose (CMC)
[9] = dose: 50.0 mg/kg/injection, schedule: Q01DX009 (ip), vehicle: saline with Tween-80
[10] = dose: 100.0 mg/kg/injection, schedule: Q01DX009 (ip), vehicle: saline with Tween-80
[11] = dose: 100.0 mg/kg/injection, schedule: Q01DX009 (ip), vehicle: Klucel (hydroxypropylcellulose) (HPC)
[12] = dose: 200.0 mg/kg/injection, schedule: Q01DX009 (ip), vehicle: Klucel (hydroxypropylcellulose) (HPC)
[13] = dose: 400.0 mg/kg/injection, schedule: Q01DX009 (ip), vehicle: Klucel (hydroxypropylcellulose) (HPC)
[14] = dose: 100.0 mg/kg/injection, schedule: Q04DX003 (ip), vehicle: saline with Tween-80
[15] = dose: 200.0 mg/kg/injection, schedule: Q01DX009 (ip), vehicle: saline with Tween-80
[16] = dose: 200.0 mg/kg/injection, schedule: Q04DX003 (ip), vehicle: saline with Tween-80
[17] = dose: 400.0 mg/kg/injection, schedule: Q04DX003 (ip), vehicle: saline with Tween-80

Measured: T/C

CCC(N)CC
inactive: dose: 75.0 mg/kg/injection, schedule: Q01DX009 (ip), vehicle: saline 104 % of control | [1] 105 % of control | dose: 150.0 mg/kg/injection, schedule: Q01DX009 (ip), vehicle: saline 96 % of control and 100 % of control | [2] 103 % of control

COc1nc(C)c(C)n[n+]1C
inactive: dose: 75.0 mg/kg/injection, schedule: Q01DX001 (ip), vehicle: saline with Tween-80 107 % of control | dose: 150.0 mg/kg/injection, schedule: Q01DX001 (ip), vehicle: saline with Tween-80 104 % of control | dose: 300.0 mg/kg/injection, schedule: Q01DX001 (ip), vehicle: saline with Tween-80 111 % of control

COC1=C(O)C(C(O)CO)OC1=O (configuration not stated)
inactive: dose: 25.0 mg/kg/injection, schedule: Q01DX009 (ip), vehicle: water 103 % of control | dose: 50.0 mg/kg/injection, schedule: Q01DX009 (ip), vehicle: water 110 % of control | dose: 100.0 mg/kg/injection, schedule: Q01DX009 (ip), vehicle: water 117 % of control | dose: 200.0 mg/kg/injection, schedule: Q01DX009 (ip), vehicle: water 101 % of control | dose: 400.0 mg/kg/injection, schedule: Q01DX009 (ip), vehicle: water 108 % of control

CC(=O)CC(C)(C)c1ccccc1
inactive: [3] 100 % of control | dose: 100.0 mg/kg/injection, schedule: Q01DX009 (ip), vehicle: saline 103 % of control | [1] 103 % of control | [4] 95 % of control | dose: 200.0 mg/kg/injection, schedule: Q01DX009 (ip), vehicle: saline 101 % of control | [2] 100 % of control | [5] 94 % of control | dose: 400.0 mg/kg/injection, schedule: Q04DX003 (ip), vehicle: saline 111 % of control

c1ccc2oc(N3CCN(c4nc5ccccc5o4)CC3)nc2c1
inactive: [6] 102 % of control | [7] 91 % of control | [8] 88 % of control

Cc1cc(C2=NCC(C)(C)S2)ccc1O
inactive: dose: 25.0 mg/kg/injection, schedule: Q01DX005 (ip), vehicle: saline with Tween-80 92 % of control | dose: 25.0 mg/kg/injection, schedule: Q01DX009 (ip), vehicle: saline with Tween-80 91 % of control | dose: 50.0 mg/kg/injection, schedule: Q01DX005 (ip), vehicle: saline with Tween-80 92 % of control | [9] 98 % of control | dose: 100.0 mg/kg/injection, schedule: Q01DX005 (ip), vehicle: saline with Tween-80 93 % of control and 105 % of control | [10] 98 % of control | dose: 100.0 mg/kg/injection, schedule: Q04DX002 (ip), vehicle: saline with Tween-80 100 % of control | dose: 200.0 mg/kg/injection, schedule: Q04DX002 (ip), vehicle: saline with Tween-80 96 % of control | dose: 400.0 mg/kg/injection, schedule: Q04DX002 (ip), vehicle: saline with Tween-80 88 % of control

C=Cn1nnnc1N
inactive: dose: 100.0 mg/kg/injection, schedule: Q01DX001 (ip), vehicle: saline with Tween-80 100 % of control | dose: 200.0 mg/kg/injection, schedule: Q01DX001 (ip), vehicle: saline with Tween-80 93 % of control | dose: 400.0 mg/kg/injection, schedule: Q01DX001 (ip), vehicle: saline with Tween-80 98 % of control

Cc1nc2sc3c(c2c(=S)[nH]1)CCCC3
inactive: dose: 100.0 mg/kg/injection, schedule: Q01DX001 (ip), vehicle: saline sonified 86 % of control | dose: 200.0 mg/kg/injection, schedule: Q01DX001 (ip), vehicle: saline sonified 89 % of control | dose: 400.0 mg/kg/injection, schedule: Q01DX001 (ip), vehicle: saline sonified 91 % of control

CC12CCC(O)CC1CCC1C3CCCC(=O)C3CCC12 (configuration not stated)
inactive: dose: 50.0 mg/kg/injection, schedule: Q01DX009 (sc), vehicle: steriod suspending solution 103 % of control | dose: 100.0 mg/kg/injection, schedule: Q01DX009 (sc), vehicle: steriod suspending solution 97 % of control | dose: 200.0 mg/kg/injection, schedule: Q01DX009 (sc), vehicle: steriod suspending solution 94 % of control

CCOc1ccc(N2C(C#N)c3ccccc3OC2c2ccccc2O)cc1 (configuration not stated)
inactive: [11] 97 % of control | [12] 97 % of control | [13] 101 % of control

CNCC/C=C1\c2ccccc2CCSc2ccccc21
inactive: dose: 25.0 mg/kg/injection, schedule: Q04DX003 (ip), vehicle: saline 98 % of control | dose: 50.0 mg/kg/injection, schedule: Q04DX003 (ip), vehicle: saline 101 % of control | [1] 95 % of control and 101 % of control

CNP(Br)(c1ccccc1)(c1ccccc1)c1ccccc1
inactive: dose: 10.0 mg/kg/injection, schedule: Q01DX001 (ip), vehicle: saline 101 % of control

NC(=O)C1(Nc2ccc(-c3ccc(Cl)cc3)cc2)CCCC1
inactive: dose: 50.0 mg/kg/injection, schedule: Q01DX001 (ip), vehicle: carboxymethylcellulose (CMC) 96 % of control | [6] 93 % of control | [7] 90 % of control | [8] 87 % of control

Nc1ncnc2n[nH]nc12
inactive: dose: 50.0 mg/kg/injection, schedule: Q01DX009 (ip), vehicle: Klucel (hydroxypropylcellulose) (HPC) 104 % of control | [11] 106 % of control

CN(C)c1ccc(C(=O)CCCN2CCC(O)(c3ccc(C(F)(F)F)cc3)CC2)cc1
inactive: dose: 50.0 mg/kg/injection, schedule: Q01DX001 (ip), vehicle: Klucel (hydroxypropylcellulose) (HPC) 97 % of control | [3] 96 % of control | [4] 105 % of control

O=C1NC(c2ccccc2)(c2ccccc2)C(=O)N1CN1CCN(CN2C(=O)NC(c3ccccc3)(c3ccccc3)C2=O)CC1
inactive: dose: 6.25 mg/kg/injection, schedule: Q01DX009 (ip), vehicle: saline sonified 99 % of control | dose: 12.5 mg/kg/injection, schedule: Q01DX009 (ip), vehicle: saline sonified 100 % of control | dose: 25.0 mg/kg/injection, schedule: Q01DX009 (ip), vehicle: saline sonified 94 % of control | [3] 108 % of control | [4] 92 % of control | [5] 92 % of control

O=c1[nH]c2cscc2c(=O)n1OS(=O)(=O)c1ccccc1
inactive: [11] 93 % of control | [12] 95 % of control | [13] 100 % of control

COC(=O)c1ccc(N(C)CCC(C)=O)cc1
inactive: dose: 100.0 mg/kg/injection, schedule: Q01DX001 (ip), vehicle: other 97 % of control | dose: 200.0 mg/kg/injection, schedule: Q01DX001 (ip), vehicle: other 95 % of control | dose: 400.0 mg/kg/injection, schedule: Q01DX001 (ip), vehicle: other 106 % of control

Cc1cccc(NCc2ccc(Cl)cc2Cl)c1
inactive: [9] 106 % of control | [10] 103 % of control | [14] 93 % of control and 88 % of control | [15] 98 % of control | [16] 95 % of control | [17] 96 % of control and 101 % of control

COC1OC(CO)C(O)C(NC(=O)NCCCl)C1O (configuration not stated)
inactive: dose: 100.0 mg/kg/injection, schedule: Q01DX001 (ip), vehicle: saline 113 % of control | dose: 200.0 mg/kg/injection, schedule: Q01DX001 (ip), vehicle: saline 111 % of control | dose: 400.0 mg/kg/injection, schedule: Q01DX001 (ip), vehicle: saline 103 % of control

Cc1ccccc1NC(=O)Nc1ccccc1C
inactive: [11] 97 % of control | [12] 106 % of control | [13] 93 % of control

CCOC(=O)C(C(=N)C#N)C(C)=O (configuration not stated)
inactive: dose: 6.25 mg/kg/injection, schedule: Q04DX003 (ip), vehicle: saline with Tween-80 98 % of control | dose: 12.5 mg/kg/injection, schedule: Q04DX003 (ip), vehicle: saline with Tween-80 98 % of control | dose: 25.0 mg/kg/injection, schedule: Q04DX003 (ip), vehicle: saline with Tween-80 97 % of control | dose: 50.0 mg/kg/injection, schedule: Q04DX003 (ip), vehicle: saline with Tween-80 88 % of control | [14] 103 % of control

CC1(c2ccco2)C(=O)NC(=O)N1C(=O)CCl (configuration not stated)
inactive: [10] 112 % of control | [14] 96 % of control | [15] 101 % of control | [16] 103 % of control | [17] 101 % of control

CCOC(=O)P(C(=O)OCC)C(=O)OCC
inactive: dose: 75.0 mg/kg/injection, schedule: Q01DX001 (ip), vehicle: saline 97 % of control
